Laboratory results taken from US9879043B1, “Synthesis of non-natural cofactor analogs of S-adenosyl-L-methionine using methionine adenosyltransferase” (University of Kentucky Research Foundation, priority 2013, dated 2018).

Legend:
[1] = target: Escherichia coli MAT (eMAT) (Escherichia coli, UniProt P0A817); assay: MAT assay, turnover of S/Se-Met analogs to S(Se)AM analogs (RP-HPLC end point); type: biochemical; conditions: 2 mM Met analog, 1 mM ATP, 5 μM MAT, pH 8, 4 h, 37° C., average of two assays
Escherichia coli MAT (eMAT), sequence (P0A817 whole entry): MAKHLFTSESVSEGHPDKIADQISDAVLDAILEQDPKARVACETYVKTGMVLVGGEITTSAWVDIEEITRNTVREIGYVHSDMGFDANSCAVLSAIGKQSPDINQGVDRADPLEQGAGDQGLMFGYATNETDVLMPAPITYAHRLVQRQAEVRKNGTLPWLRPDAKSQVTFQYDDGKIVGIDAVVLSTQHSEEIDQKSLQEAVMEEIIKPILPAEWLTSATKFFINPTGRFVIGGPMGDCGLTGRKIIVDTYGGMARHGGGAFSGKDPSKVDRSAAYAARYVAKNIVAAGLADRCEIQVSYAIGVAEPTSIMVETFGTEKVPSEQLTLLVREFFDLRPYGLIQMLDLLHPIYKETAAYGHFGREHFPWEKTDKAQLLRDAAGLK

[2] = target: T1, Sulfolobus solfataricus MAT (sMAT) (Saccharolobus solfataricus, UniProt Q980S9); assay: Kinetic measurements of sMAT reactions; type: biochemical
T1 sequence (Q980S9 1-404): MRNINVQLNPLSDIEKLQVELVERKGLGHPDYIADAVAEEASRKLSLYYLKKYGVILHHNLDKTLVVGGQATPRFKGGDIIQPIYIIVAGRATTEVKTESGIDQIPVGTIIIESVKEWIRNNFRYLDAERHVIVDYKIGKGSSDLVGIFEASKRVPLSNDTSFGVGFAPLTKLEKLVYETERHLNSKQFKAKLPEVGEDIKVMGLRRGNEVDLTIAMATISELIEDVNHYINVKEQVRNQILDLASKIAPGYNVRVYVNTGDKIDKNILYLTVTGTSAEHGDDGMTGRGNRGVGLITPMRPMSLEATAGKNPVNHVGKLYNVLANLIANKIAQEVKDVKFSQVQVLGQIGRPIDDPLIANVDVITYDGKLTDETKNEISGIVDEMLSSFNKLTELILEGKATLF
Procedure: Kinetic Measurements of sMAT Reactions: Pseudo first-order kinetics was assessed in triplicate under saturating ATP (2.5 mM) and variable L-methionine/L-ethionine (0.007, 0.013, 0.033, 0.066, 0.133, 0.333, 0.66, 1.33 mM) and saturating L-methionine/L-ethionine (2.5 mM) and variable ATP (0.013, 0.033, 0.066, 0.133, 0.333, 0.66, 1.33 mM) concentrations. Reactions were performed in buffer containing 25 mM Tris pH 8.0, 40 mM KCl and 5 mM MgCl2, and 0.5 μg purified sMAT was added and incubated at 37° C. or 65° C. in a final volume of 20 μL. Reaction products were analyzed using RP-HPLC method above and product quantification was carried out using standard curve generated by commercial SAM. The kinetic curves were fit to the Michaelis-Menton equation using Prism software.

CCSCC[C@H](N)C(=O)O [compound 3, (2S)-2-amino-4-(ethylsulfanyl)butanoic acid]
Percentage Turn-over eMAT [1]: 8% | Percentage Turn-over eMAT ([1]; listed as ethionine): 10% | kcat ([2]; 37° C. or 65° C., L-methionine versus L-ethionine): similar | Km ([2]; compared to native substrate L-methionine): higher Km values
